ChEMBL document CHEMBL2346657, “Synthesis of novel 2-amino-4-(5'-substituted 2'-phenyl-1H-indol-3'-yl)-6-aryl-4H-pyran-3-carbonitrile derivatives as antimicrobial and antioxidant agents” (2013)
Activity calls are given as the source filed them. How the calls were made is not given here.

How the values were obtained:
Type in all cases: functional
Aspergillus terreus [1] = test: Antimicrobial activity against Aspergillus terreus MTCC 1782 at 1000 ug/ml after 72 hrs by cup plate method; details: MTCC 1782, 72 h, read-out: IZ
Pseudomonas aeruginosa [2] = test: Antimicrobial activity against Pseudomonas aeruginosa MTCC 1688 at 1000 ug/ml after 24 hrs by cup plate method; details: MTCC 1688, 24 h, read-out: IZ
Aspergillus niger [3] = test: Antimicrobial activity against Aspergillus niger MTCC 281 at 500 ug/ml after 72 hrs by cup plate method; details: MTCC 281, 72 h, read-out: IZ
Staphylococcus aureus [4] = test: Antimicrobial activity against Staphylococcus aureus ATCC 29513 at 1000 ug/ml after 24 hrs by cup plate method; details: ATCC 29513, 24 h, read-out: IZ
Aspergillus terreus [5] = test: Antimicrobial activity against Aspergillus terreus MTCC 1782 at 750 ug/ml after 72 hrs by cup plate method; details: MTCC 1782, 72 h, read-out: IZ
Klebsiella pneumoniae [6] = test: Antimicrobial activity against Klebsiella pneumoniae NCTC 13368 at 750 ug/ml after 24 hrs by cup plate method; details: NCTC 13368, 24 h, read-out: IZ
Aspergillus niger [7] = test: Antimicrobial activity against Aspergillus niger MTCC 281 at 1000 ug/ml after 72 hrs by cup plate method; details: MTCC 281, 72 h, read-out: IZ
Staphylococcus aureus [8] = test: Antimicrobial activity against Staphylococcus aureus ATCC 29513 at 500 ug/ml after 24 hrs by cup plate method; details: ATCC 29513, 24 h, read-out: IZ
Aspergillus oryzae [9] = test: Antimicrobial activity against Aspergillus oryzae MTCC 3567 at 1000 ug/ml after 72 hrs by cup plate method; details: MTCC 3567, 72 h, read-out: IZ
[10] = Antioxidant activity assessed as metal chelating activity by measuring inhibition of ferrozine-Fe2+ complex formation at 25 to 100 ug/ml
Staphylococcus aureus [11] = test: Antimicrobial activity against Staphylococcus aureus ATCC 29513 at 750 ug/ml after 24 hrs by cup plate method; details: ATCC 29513, 24 h, read-out: IZ
Pseudomonas aeruginosa [12] = test: Antimicrobial activity against Pseudomonas aeruginosa MTCC 1688 at 500 ug/ml after 24 hrs by cup plate method; details: MTCC 1688, 24 h, read-out: IZ
Aspergillus terreus [13] = test: Antimicrobial activity against Aspergillus terreus MTCC 1782 at 500 ug/ml after 72 hrs by cup plate method; details: MTCC 1782, 72 h, read-out: IZ
Aspergillus flavus [14] = test: Antimicrobial activity against Aspergillus flavus MTCC 1973 at 500 ug/ml after 72 hrs by cup plate method; details: MTCC 1973, 72 h, read-out: IZ
Aspergillus flavus [15] = test: Antimicrobial activity against Aspergillus flavus MTCC 1973 at 750 ug/ml after 72 hrs by cup plate method; details: MTCC 1973, 72 h, read-out: IZ
Pseudomonas aeruginosa [16] = test: Antimicrobial activity against Pseudomonas aeruginosa MTCC 1688 at 750 ug/ml after 24 hrs by cup plate method; details: MTCC 1688, 24 h, read-out: IZ
Klebsiella pneumoniae [17] = test: Antimicrobial activity against Klebsiella pneumoniae NCTC 13368 at 1000 ug/ml after 24 hrs by cup plate method; details: NCTC 13368, 24 h, read-out: IZ
Escherichia coli [18] = test: Antimicrobial activity against Escherichia coli MTCC 723 at 1000 ug/ml after 24 hrs by cup plate method; details: MTCC 723, 24 h, read-out: IZ
Aspergillus niger [19] = test: Antimicrobial activity against Aspergillus niger MTCC 281 at 750 ug/ml after 72 hrs by cup plate method; details: MTCC 281, 72 h, read-out: IZ
Escherichia coli [20] = test: Antimicrobial activity against Escherichia coli MTCC 723 at 500 ug/ml after 24 hrs by cup plate method; details: MTCC 723, 24 h, read-out: IZ
Aspergillus flavus [21] = test: Antimicrobial activity against Aspergillus flavus MTCC 1973 at 1000 ug/ml after 72 hrs by cup plate method; details: MTCC 1973, 72 h, read-out: IZ
Aspergillus oryzae [22] = test: Antimicrobial activity against Aspergillus oryzae MTCC 3567 at 500 ug/ml after 72 hrs by cup plate method; details: MTCC 3567, 72 h, read-out: IZ
Aspergillus oryzae [23] = test: Antimicrobial activity against Aspergillus oryzae MTCC 3567 at 750 ug/ml after 72 hrs by cup plate method; details: MTCC 3567, 72 h, read-out: IZ
Escherichia coli [24] = test: Antimicrobial activity against Escherichia coli MTCC 723 at 750 ug/ml after 24 hrs by cup plate method; details: MTCC 723, 24 h, read-out: IZ
Klebsiella pneumoniae [25] = test: Antimicrobial activity against Klebsiella pneumoniae NCTC 13368 at 500 ug/ml after 24 hrs by cup plate method; details: NCTC 13368, 24 h, read-out: IZ

| Compound | zone of inhibition at 1000 µg/mL (Aspergillus terreus [1]) [mm] | zone of inhibition at 1000 µg/mL (Pseudomonas aeruginosa [2]) [mm] | zone of inhibition at 500 µg/mL (Aspergillus niger [3]) [mm] | zone of inhibition at 1000 µg/mL (Staphylococcus aureus [4]) [mm] | zone of inhibition at 750 µg/mL (Aspergillus terreus [5]) [mm] | zone of inhibition at 750 µg/mL (Klebsiella pneumoniae [6]) [mm] | zone of inhibition at 1000 µg/mL (Aspergillus niger [7]) [mm] | zone of inhibition at 500 µg/mL (Staphylococcus aureus [8]) [mm] | zone of inhibition at 1000 µg/mL (Aspergillus oryzae [9]) [mm] | Activity [10] | zone of inhibition at 750 µg/mL (Staphylococcus aureus [11]) [mm] | zone of inhibition at 500 µg/mL (Pseudomonas aeruginosa [12]) [mm] | zone of inhibition at 500 µg/mL (Aspergillus terreus [13]) [mm] | zone of inhibition at 500 µg/mL (Aspergillus flavus [14]) [mm] | zone of inhibition at 750 µg/mL (Aspergillus flavus [15]) [mm] | zone of inhibition at 750 µg/mL (Pseudomonas aeruginosa [16]) [mm] | zone of inhibition at 1000 µg/mL (Klebsiella pneumoniae [17]) [mm] | zone of inhibition at 1000 µg/mL (Escherichia coli [18]) [mm] | zone of inhibition at 750 µg/mL (Aspergillus niger [19]) [mm] | zone of inhibition at 500 µg/mL (Escherichia coli [20]) [mm] | also measured |
| --- | --- | --- | --- | --- | --- | --- | --- | --- | --- | --- | --- | --- | --- | --- | --- | --- | --- | --- | --- | --- | --- |
| Nc1n[nH]c2c1C(c1c(-c3ccccc3)[nH]c3ccc(Cl)cc13)C=C(c1ccccc1)O2 (stereo not given) | 3 | 13 | 6 | 8 | 3 | 5 | 5 | 10 | 12 | Active | 8 | 12 | 2 | 12 | 12 | 12 | 5 | 9 | 5 | 7 | zone of inhibition at 1000 µg/mL (Aspergillus flavus [21]): 9 mm; zone of inhibition at 500 µg/mL (Aspergillus oryzae [22]): 12 mm; zone of inhibition at 750 µg/mL (Aspergillus oryzae [23]): 12 mm; zone of inhibition at 750 µg/mL (Escherichia coli [24]): 7 mm; zone of inhibition at 500 µg/mL (Klebsiella pneumoniae [25]): 6 mm |
| Cc1ccc(C2=CC(c3c(-c4ccccc4)[nH]c4ccccc34)c3c(nc[nH]c3=O)O2)cc1 (stereo not given) | 8 | 3 | 8 | 2 | 8 | 6 | 11 | 2 | 3 | Active | 2 | 4 | 8 | 3 | 3 | 3 | 6 | 3 | 8 | 3 | zone of inhibition at 1000 µg/mL (Aspergillus flavus [21]): 5 mm; zone of inhibition at 500 µg/mL (Aspergillus oryzae [22]): 3 mm; zone of inhibition at 750 µg/mL (Aspergillus oryzae [23]): 3 mm; zone of inhibition at 750 µg/mL (Escherichia coli [24]): 3 mm; zone of inhibition at 500 µg/mL (Klebsiella pneumoniae [25]): 6 mm |
| Cc1ccc(C2=CC(c3c(-c4ccccc4)[nH]c4ccccc34)c3c(N)nc(=S)[nH]c3O2)cc1 (stereo not given) | 4 | 3 | 6 | 4 | 4 | 9 | 2 | 6 | 9 | Active | 4 | 5 | 6 | 3 | 3 | 5 | 3 | 3 | 5 | 9 | zone of inhibition at 1000 µg/mL (Aspergillus flavus [21]): 3 mm; zone of inhibition at 500 µg/mL (Aspergillus oryzae [22]): 10 mm; zone of inhibition at 750 µg/mL (Aspergillus oryzae [23]): 9 mm; zone of inhibition at 750 µg/mL (Escherichia coli [24]): 8 mm; zone of inhibition at 500 µg/mL (Klebsiella pneumoniae [25]): 9 mm |
| N#CC1=C(N)OC(c2ccccc2)=CC1c1c(-c2ccccc2)[nH]c2ccc(Cl)cc12 (stereo not given) | 8 | 13 | 8 | 9 | 8 | 10 | 10 | 10 | 3 | Active | 9 | 12 | 9 | 3 | 3 | 12 | 10 | 10 | 9 | 10 | zone of inhibition at 1000 µg/mL (Aspergillus flavus [21]): 3 mm; zone of inhibition at 500 µg/mL (Aspergillus oryzae [22]): 8 mm; zone of inhibition at 750 µg/mL (Aspergillus oryzae [23]): 3 mm; zone of inhibition at 750 µg/mL (Escherichia coli [24]): 10 mm; zone of inhibition at 500 µg/mL (Klebsiella pneumoniae [25]): 10 mm |
| Nc1nc(=O)[nH]c2c1C(c1c(-c3ccccc3)[nH]c3ccc(Cl)cc13)C=C(c1ccccc1)O2 (stereo not given) | 3 | 5 | 10 | 3 | 3 | 10 | 8 | 3 | 12 | Active | 3 | 9 | 3 | 10 | 10 | 8 | 10 | 10 | 10 | 10 | zone of inhibition at 1000 µg/mL (Aspergillus flavus [21]): 9 mm; zone of inhibition at 500 µg/mL (Aspergillus oryzae [22]): 12 mm; zone of inhibition at 750 µg/mL (Aspergillus oryzae [23]): 12 mm; zone of inhibition at 750 µg/mL (Escherichia coli [24]): 10 mm; zone of inhibition at 500 µg/mL (Klebsiella pneumoniae [25]): 11 mm |
| N#Cc1c(N)c2c(N)c3c(nc2oc1=O)OC(c1ccc(Cl)cc1)=CC3c1c(-c2ccccc2)[nH]c2ccccc12 (stereo not given) | 11 | 9 | 7 | 12 | 10 | 13 | 5 | 12 | 13 | Active | 11 | 10 | 10 | 0 | 0 | 9 | 13 | 12 | 5 | 3 | zone of inhibition at 1000 µg/mL (Aspergillus flavus [21]): 8 mm; zone of inhibition at 500 µg/mL (Aspergillus oryzae [22]): 12 mm; zone of inhibition at 750 µg/mL (Aspergillus oryzae [23]): 13 mm; zone of inhibition at 750 µg/mL (Escherichia coli [24]): 3 mm; zone of inhibition at 500 µg/mL (Klebsiella pneumoniae [25]): 13 mm |
| Nc1nc(=S)[nH]c2c1C(c1c(-c3ccccc3)[nH]c3ccccc13)C=C(c1ccc(Cl)cc1)O2 (stereo not given) | 5 | 10 | 3 | 11 | 5 | 8 | 5 | 10 | 8 | Active | 10 | 10 | 8 | 12 | 12 | 10 | 5 | 10 | 3 | 10 | zone of inhibition at 1000 µg/mL (Aspergillus flavus [21]): 5 mm; zone of inhibition at 500 µg/mL (Aspergillus oryzae [22]): 9 mm; zone of inhibition at 750 µg/mL (Aspergillus oryzae [23]): 8 mm; zone of inhibition at 750 µg/mL (Escherichia coli [24]): 10 mm; zone of inhibition at 500 µg/mL (Klebsiella pneumoniae [25]): 8 mm |
| Cc1ccc2[nH]c(-c3ccccc3)c(C3C=C(c4ccccc4)Oc4[nH]c(=O)nc(N)c43)c2c1 (stereo not given) | 9 | 10 | 10 | 11 | 8 | 5 | 10 | 11 | 5 | Active | 11 | 10 | 8 | 8 | 8 | 10 | 5 | 8 | 9 | 8 | zone of inhibition at 1000 µg/mL (Aspergillus flavus [21]): 7 mm; zone of inhibition at 500 µg/mL (Aspergillus oryzae [22]): 9 mm; zone of inhibition at 750 µg/mL (Aspergillus oryzae [23]): 8 mm; zone of inhibition at 750 µg/mL (Escherichia coli [24]): 8 mm; zone of inhibition at 500 µg/mL (Klebsiella pneumoniae [25]): 6 mm |
